Assays:
[1] = target: T1, human inositol monophosphatase (Homo sapiens, UniProt P29218); experiment: in vitro IMPase inhibition, malachite green phosphate assay; format: biochemical; settings: for IC50: human IMPase, constant amount of inositol monophosphate
T1 construct: made in house; host or cells: E. coli BL21 (DE3) pLysS
T1 sequence (P29218 1-277): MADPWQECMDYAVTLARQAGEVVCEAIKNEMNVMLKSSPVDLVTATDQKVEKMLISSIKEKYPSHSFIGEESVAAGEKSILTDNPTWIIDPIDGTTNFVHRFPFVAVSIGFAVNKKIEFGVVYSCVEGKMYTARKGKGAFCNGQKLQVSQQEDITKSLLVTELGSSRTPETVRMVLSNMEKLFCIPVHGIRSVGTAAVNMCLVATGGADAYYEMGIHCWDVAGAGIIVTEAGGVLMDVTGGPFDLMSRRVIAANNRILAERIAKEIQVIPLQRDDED
Excerpt: Human inositol monophosphatase cDNA was ordered from Geneservice, Source Bioscience, Cambridge, UK. The cDNA was inserted into plasmid pRSET5a, which was then transformed into JM109 competent cells. These cells were allowed to multiply and the plasmid was then extracted from the cells. The plasmid was then transformed into expression bacteria, E.coli strain BL21 (DE3) pLysS. […] The next day the cells were lysed and the soluble fraction, which contained the enzyme, was collected. Purification was carried out in 3 stages. The soluble fraction was heated at 68° C. for 1 hour and then centrifuged. The supernatant was taken and run through a Q-sepharose column (Pharmacia). Different fractions were collected and assessed for activity. The active fractions were then passed through a Tricorn MonoQ 5/50 GL column (GE Healthcare, UK) for further purification.
Each enzymatic reaction using human inositol monophosphatase contained 0.00013 mg of enzyme (0.0673 mg/mL). The substrate inositol monophosphate (Alexis Chemicals) was diluted with the appropriate buffer to make up a concentration of 50 mM stock. The stock was then diluted with buffer to yield the following concentrations of substrate: 0 mM, 0.1 mM, 0.5 mM, 1.0 mM, 1.5 mM, 2.5 mM, 5 mM, 10 mM, 20 mM, 25 mM and 30 mM. From this 2 μL of substrate was added to each reaction well giving a tenfold dilution of substrate to 0 mM, 0.01 mM, 0.05 mM, 0.1 mM, 0.15 mM, 0.25 mM, 0.5 mM, 1 mM, 2 mM, 2.5 mM and 3 mM. The reaction buffer contained 1 mM EGTA, 150 mM KCl, 3 mM MgCl2, 0.5 ng/mL BSA, 50 mM Tri, HCl, pH 7.4 and 0.01% Triton X100.
A malachite green assay was used for the quantitative determination of free inorganic phosphate present at the end of the IMPase reaction. This involved dissolving 4.2% w/v ammonium molybdate in 4M hydrochloric acid. The Malachite Green itself was made up to 0.045% w/v concentration. From these stocks, a 3:1 malachite green:ammonium molybdate mixture was prepared and vortexed for thirty minutes. The malachite green forms a complex of ammonium molybdate:malachite green:inorganic phosphate in the presence of free inorganic phosphate. To each reaction plate, duplicate wells of a range of known phosphate concentrations were prepared within the concentration range of 0-300 μM with each well containing 20 μL of solution. The phosphate standards were made from serial dilutions of 1M potassium dihydrogen phosphate using double distilled H2O. To each well was added 180 μL of malachite green:ammonium molybdate mix. The colour produced by the reaction between the inorganic phosphate and malachite green:ammonium molybdate was proportional to the amount of phosphate present. The colour was allowed to develop for 15 min and then the plate was read on a TECAN Sunrise microplate reader at 595 nm wavelength.
For the reactions whose results are shown in FIG. 2, lithium (Sigma) was dissolved in double-distilled H2O and diluted appropriately to the concentration of 10 mM with 2 μL of lithium being added per well to yield a final well concentration of 1 mM. Stock concentrations of lithium were also made from this. L690330 was purchased from Sigma Chemicals, and was made up to a 1 mM stock concentration using H2O. From this stock the following concentrations were prepared using serial dilutions with water: 300 μM to 30 nM. These concentrations were used to produce a concentration-inhibition curve for the enzyme. Ebselen was purchased from BioFocus as a 10 mM stock in DMSO. […]

inositol monophosphatase = experiment: mouse ex vivo assay of IMPase activity in brain homogenate; settings: 5 mg/kg i.p., CD1 male mice, 1 hour (FIG. 5)
Protocol: To determine the bio-availability of ebselen, a mouse ex vivo assay was used. In this assay mice were given an intraperitoneal (i.p.) injection of 5 mg/kg ebselen solublized in betacyclodextrin, according to the following procedure. A stock solution of 0.5 M ebselen in DMSO and a stock of 40% 2-Hydroxy propyl-beta-cyclodextrin (HPBCD) were made. A 3.5 mM solution of ebselen (from 0.5 M stock) was made into 40% HPBCD and finally, to obtain the concentration of 350 μM ebselen, a 1 in 10 dilution was carried out. A control solution was made containing the same dilution of DMSO and HPBCD. The volume of drug/vehicle injected i.p. into the mouse was 1 ml (for the animals dosed with ebselen this is approximately 5 mg/kg assuming each mouse weighs about 20 g). CD1 male mice, weighing approximately 20 g were used. The animals were dosed for one hour with either drug or vehicle before being killed by cervical dislocation. The brains were quickly dissected out and frozen in liquid nitrogen. […]
The protein concentration of each brain homogenate was determined and a stock of 2.5 mg of protein was made from the homogenate and stored. […] The intensity of the green color formed was measured at 595 nm.

[2] = test system: inositol levels in mice brains; experiment: ex vivo inositol levels in mice brains by 1H NMR; design: species or system mouse; settings: 1 hour after intraperitoneal injection, p<0.001 (FIG. 6)
Protocol: Similar conclusions can be reached from the results shown in FIG. 6, in which inositol levels in mice brains were measured ex vivo using ^1H NMR spectroscopy. The results were obtained from brains removed from mice 1 hour after intraperitoneal injection either with ebselen or with a control.

mice [3] = experiment: amphetamine-induced hyperactivity (animal model of mania); format: in vivo, mouse; settings: ebselen i.p., d-amphetamine 4 mg/kg after 60 minutes, 60 to 120 minutes, p<0.001 (FIGS. 7, 8)
Protocol: Activity and monitoring evaluation of mice was also studied. Mice were given an i.p. injection with saline (control) or ebselen (1, 5 or 10 mg/kg) and placed in a 35×35 cm perspex arena where their location was recorded by the Ethovision videotracking system (Noldus, Wageningen, The Netherlands). After 60 minutes, the mice were injected with d-amphetamine (4 mg/kg) or control. The Ethovision system follows the centre of the body of the mouse and records its position according to the location of this point. Data analysis was performed by Ethovision software, and distances moved within each 5 minute interval were calculated and plotted. The total distance moved was computed for the time frame from 60 to 120 minutes following the beginning of data acquisition. Amphetamine-induced hyperactivity is used as an animal model of mania, and is sensitive to mood-stabilising drugs such as lithium.

mice [4] = experiment: rearing experiments (infrared beam breaks, open-field test); format: in vivo, mouse; settings: p=0.023 (FIG. 9)
Protocol: Rearing experiments were also carried out as follows. Mice were allowed to move freely within a caged equipped with infrared beam lines placed at two heights.
Mice could only break the upper beams by rearing.

mice [5] = experiment: rearing experiments with intracerebroventricular inositol; format: in vivo, mouse; settings: ebselen 5 mg/kg i.p., after 60 minutes 5.5 μmol inositol intracerebroventricular (FIG. 10)
Protocol: In these rearing experiments, mice were given an intraperitoneal injection of control or ebselen (5 mg/kg), and after 60 minutes were given an intracerebroventricular injection of control or 5.5 μmol inositol.

rats = settings: cited from earlier work
bovine IMPase = target: T2, bovine IMPase (Bos taurus, UniProt P20456); settings: reported value; cited from earlier work
T2 sequence (P20456 1-277): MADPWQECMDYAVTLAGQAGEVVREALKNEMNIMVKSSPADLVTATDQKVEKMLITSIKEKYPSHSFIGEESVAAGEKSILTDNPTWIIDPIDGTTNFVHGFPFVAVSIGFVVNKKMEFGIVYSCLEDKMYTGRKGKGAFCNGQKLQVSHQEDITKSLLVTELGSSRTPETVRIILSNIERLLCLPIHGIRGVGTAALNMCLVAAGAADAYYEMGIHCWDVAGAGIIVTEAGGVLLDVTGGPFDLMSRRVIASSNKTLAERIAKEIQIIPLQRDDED

| Structure (SMILES) | in vitro inhibition of IMPase ([1]; 30 μM compound (FIG. 4)) | IC50 [1] [µM] | mode of inhibition ([1]; purified human IMPase, various ebselen and substrate concentrations (FIG. 3)) | amount of phosphate detected (IMPase activity in brain homogenate) compared to the control (inositol monophosphatase) | inositol levels in the brain versus control [2] | level of amphetamine-induced hyperactivity (mice [3]) | number of beam breaks (rearing) during the open-field test (mice [4]) | effects of ebselen on suppressing rearing behaviour after inositol injection (mice [5]) | LD50 (rats) | IC50 (bovine IMPase) [µM] |
| --- | --- | --- | --- | --- | --- | --- | --- | --- | --- | --- |
| O=c1c2ccccc2sn1-c1ccccc1 [2-phenyl-1,2-benzisothiazol-3(2H)-one] | inhibition of IMPase is also achieved | 35 |  |  |  |  |  |  |  |  |
| O=c1c2ccccc2[se]n1-c1ccccc1 [Ebselen, 2-phenyl-1,2-benzisoselenazol-3(2H)-one] |  | ~2 | non-competitive mode of inhibition | significantly lower | significantly lower | reduced level of amphetamine-induced hyperactivity | significantly reduced | significantly reduced | greater than 1000 mg/kg |  |
| CC(Oc1ccc(O)cc1)(P(=O)(O)O)P(=O)(O)O [L690330] |  | 1.5 |  |  |  |  |  |  |  | ~0.3 |
